Data: patent US20150374658A1, “COMPOSITION COMPRISING LICORICIDINE” (ANALYTICON DISCOVERY GMBH, priority 2012, published 2015)
Converted amounts (≈) assume the structure as drawn.

Tests used:
[1] = test system: Corynebacterium xerosis DSM 20743 (ATCC 373); assay: Classic assay, planktonic growth (OD580); assay type: cell-based; conditions: read-out: IC50, planktonic growth
Method: (§1) Corynebaterium xerosis is usually characterized as a rod-like gram positive bacterium. Under laboratory conditions (96 well plates) it takes ˜24 hours until Corynebaterium xerosis reaches stationary growth phase. Within this period planktonic growth can be quantified by spectroscopic means and a biofilm can be detected and quantified by standard crystal violet incorporation (c.f. O'Toole & Kolter, 1998, Mol. Microbiol. 28(3), 449-461). Planktonic growth denotes growth of non-adherent cells in the bulk liquid whereas biofilm denotes growth of cells adherent to solid surfaces.
(§2) Routine susceptibility testing of C. xerosis in high throughput format was done by simultaneous addition of test compounds and inoculum (“classic assay”). Growth of untreated (i.e. no extracts or test compounds added, control) planktonic cells ceased 7 hours after inoculation, and decreased by 13% at 24 hours. Biofilm development reached maximum 10 hours upon inoculation and kept constant for the rest of the test period (30 hours).
(§3) Formation of planktonic and biofilm cells was determined 18-24 hours after inoculation, thus at a time when some planktonic cells lysed. […]
(§4) Effects of test compounds were evaluated by comparison of turbidity (optical density, OD580) and crystal violet staining (biofilm; CV580) of treated and untreated samples (control; 100%). […]

[2] = test system: Corynebacterium xerosis DSM 20743 (ATCC 373); assay: Classic assay, biofilm formation (crystal violet, CV580); assay type: cell-based; conditions: read-out: IC50, biofilm growth mode
Method: as §1, §2, §3, §4

[3] = Stability assessment of licoricidine using different stabilizers (HPLC peak area, storage at 40° C.); assay type: physicochemical; conditions: HPLC UV 225 nm
Method: Five times 5 mg ethanolic extract (0.1%) were dissolved in 1.5 ml ethanol and 3.5 ml buffer pH 7. • To the first batch 20 mg citric acid (0.4%) were added as a stabilizer and the resulting batch was stored at 40° C. • To the second batch 50 mg citric acid (1.0%) were added as a stabilizer and the resulting batch was stored at 40° C. • To the third batch 20 mg ascorbic acid (0.4%) were added as a stabilizer and the resulting batch was stored at 40° C. • To the fourth batch 50 mg ascorbic acid (1.0%) were added as a stabilizer and the resulting batch was stored at 40° C. • The fifth batch was stored as a reference at −18° C.
30 mg lipophilic extract were dissolved in 30 ml safflower oil at 80° C.
The obtained solution was split into three batches: • To the first batch 10 mg/ml ascorbic acid palmitate were added as a stabilizer and the resulting batch was stored at 40° C. • To the second batch 10 mg/ml BHA (Butylhydroxyanisol) were added as a stabilizer and the resulting batch was stored at 40° C. • The third batch was stored as a reference at −18° C.
Dissolve 120 mg lipophilic extract in 30 ml safflower oil at 80° C.
Split in tree (3) batches: • Add to the first batch 10 mg/ml ascorbic acid palmitate as a stabilizer and store at 40° C. • Add to the second batch 10 mg/ml BHA (Butylhydroxyanisol) as a stabilizer and store at 40° C. • Freeze the third batch as a reference at −18° C.
• Add to 10 ml maceration oil 100 mg ascorbic acid palmitate as a stabilizer and store at 40° C. • Add to 10 ml maceration oil 100 mg BHA (Butylhydroxyanisol) as a stabilizer and store at 40° C. • Freeze 10 ml maceration oil as a reference at −18° C.
0.5 ml of the respective oil prepared according to any one of examples 5.1 to 5.4 was extracted with 3 ml methanole/water (9:1), centrifugated and the supernatant was used for the analysis.
• Column: Kromasil C18, 125×4 mm with pre-column • Detection: UV (225 nm) • Mobile Phase: A: water with 5 mM ammoniumformiate and 0.1% formic acid; • B: acetonitrile/methanol=1:1, 5 mM ammoniumformiate and 0.1% formic acid • Gradient: from 60% B to 80% B in 30 min • Flow: 0.8 ml/min • The retention time of the reference peak (licoricidine) is 16.9 (±0.2) min.

decrease of the peak area of licoricidine ([3]; aqueous solution (buffer pH 7 in addition of 30% ethanol) with 0.1% ethanolic extract and 1% citric acid, eight (8) weeks storage at 40° C.)	decrease of the peak area of licoricidine ([3]; maceration oil with addition of 1% BHA, twelve (12) weeks storage at 40° C.)	decrease of the peak area of licoricidine ([3]; safflower oil with 0.1% lipophilic extract, 1% BHA, twelve (12) weeks storage at 40° C.)	decrease of the peak area of licoricidine ([3]; safflower oil with 0.4% lipophilic extract, 1% BHA, twelve (12) weeks storage at 40° C.)	IC50 ([2]; serial dilutions, classic assay) [µg/mL]	SMILES	IC50 [1] [µg/mL]	IC50 [2] [µg/mL]
					Oc1cc(Cl)ccc1Oc1ccc(Cl)cc1Cl [Triclosan, 5-chloro-2-(2,4-dichlorophenoxy)-phenol, reference compound]	1.7 (≈ 5.87 µM)	0.6 (≈ 2.07 µM)
lower than 20%	lower than 20%	lower than 20%	lower than 20%	4.3 (≈ 10.1 µM)	COc1c(CC=C(C)C)c(O)cc2c1C[C@H](c1ccc(O)c(CC=C(C)C)c1O)CO2 [licoricidine]		
